From patent publication US20240299416A1, “TREATMENT OF NF-kB-MEDIATED DISEASE” (ReveraGen BioPharma, Inc., priority 2021, published 2024)
Like-named read-outs stand apart in the source and are kept apart here. Each block holds one molecule with its values, some of them ahead of it.

Tests used:
[1] = cited from earlier work
[2] = Griggs et al. 2016 double-blind trial, 12 months treatment, cited from earlier work
[3] = target: T1, mineralocorticoid receptor (Homo sapiens, UniProt P08235); details: cited from earlier work
T1 sequence (P08235 1-984): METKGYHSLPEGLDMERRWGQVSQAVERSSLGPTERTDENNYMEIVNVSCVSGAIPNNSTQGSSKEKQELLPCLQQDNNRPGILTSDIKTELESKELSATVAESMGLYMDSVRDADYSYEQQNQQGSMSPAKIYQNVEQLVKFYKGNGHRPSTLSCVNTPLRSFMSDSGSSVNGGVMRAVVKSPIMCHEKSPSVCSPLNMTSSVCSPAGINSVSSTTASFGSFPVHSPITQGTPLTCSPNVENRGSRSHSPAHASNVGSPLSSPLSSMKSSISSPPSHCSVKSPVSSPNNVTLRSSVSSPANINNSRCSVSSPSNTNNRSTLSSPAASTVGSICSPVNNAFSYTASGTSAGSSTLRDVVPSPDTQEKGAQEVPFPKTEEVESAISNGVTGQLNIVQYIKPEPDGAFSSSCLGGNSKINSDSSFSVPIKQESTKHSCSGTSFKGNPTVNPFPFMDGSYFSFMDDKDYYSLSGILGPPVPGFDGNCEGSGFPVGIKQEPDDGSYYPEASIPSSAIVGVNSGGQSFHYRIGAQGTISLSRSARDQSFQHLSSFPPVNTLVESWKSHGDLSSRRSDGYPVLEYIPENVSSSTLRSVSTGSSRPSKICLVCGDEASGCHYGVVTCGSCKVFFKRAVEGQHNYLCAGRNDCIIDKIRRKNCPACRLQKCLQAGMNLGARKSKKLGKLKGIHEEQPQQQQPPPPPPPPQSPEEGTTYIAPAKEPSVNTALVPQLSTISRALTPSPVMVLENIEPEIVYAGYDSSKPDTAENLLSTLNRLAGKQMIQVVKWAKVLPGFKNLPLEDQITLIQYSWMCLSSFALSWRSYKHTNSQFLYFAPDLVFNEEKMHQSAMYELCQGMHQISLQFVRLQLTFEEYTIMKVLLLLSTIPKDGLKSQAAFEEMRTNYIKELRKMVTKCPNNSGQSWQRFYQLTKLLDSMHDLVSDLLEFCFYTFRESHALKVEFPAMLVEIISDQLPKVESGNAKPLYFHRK

[4] = VBP15-004 adverse events at 24 weeks; design: species or system human; details: male, human, in vivo, 24 weeks
From the text: In certain embodiments, the symptom may be an adverse event of special interest (AESI). In this context, AESIs are prespecified based on pre-defined MedDRA search criteria for eleven AESI categories for the corticosteroid class and then further stratified into AESI of at least moderate severity. The symptoms for treating DMD with corticosteroids include, but is not limited to, behavior adverse events, blood glucose related problems, gastrointestinal symptoms, increased arterial blood pressure, immune suppression/infections, skin/hair changes, cataracts/glaucoma, cushingoid features, weight gain, bone fractures, slow growth.
(§1) The second period of 24 weeks, where all participants receive vamorolone treatment on either of the two dose levels, will continue to capture additional longer-term safety and tolerability data.

boys with DMD = test: VBP15-004 efficacy at Week 48; type: in vivo, human; details: prednisone, Treatment Period 1
Description: (§2) Subjects already on vamorolone continued on the allocated dose level. Efficacy at Week 48 was assessed by Time to Stand ([…]) velocity, 6-Minute Walk Test (6MWT), Time to Run/Walk 10 meters (TTRW) velocity, and North Star Ambulatory Assessment (NSAA). […] In contrast, the persistence of effects with vamorolone 2 mg/kg/day was less pronounced for some parameters. The safety profile was consistent for subjects who continued on the same dose of vamorolone throughout the study, with no increase in frequency or severity of adverse events being observed over time. […] In addition, vamorolone treatment at both doses reversed the growth impairment seen during prednisone treatment and was associated with fewer adverse events, including those associated with corticosteroid use.

[5] = VBP15-004 adverse events, Treatment Period 2 / cross-over; type: in vivo, human; details: on prednisone (to Week 24), subjects later switched to vamorolone 6 mg/kg/day
Description: as §2

osteocalcin, P1NP, CTX = test: VBP15-004 bone turnover biomarkers; type: in vivo, human
[6] = Growth (height percentile) and BMI vs external comparators; type: in vivo, human; details: CINRG prednisone trial, 0.75 mg/kg/day daily; for Mean BMI z-score, change from baseline (SD) / Mean BMI z-score, baseline value (SD): 0.75 mg/kg/day
Description: As with the CINRG DNHS comparators, group-matching criteria were prespecified in the iSAP, and 2 independent statisticians carried out the participant matching. […] There was no corresponding 12-month assessment in vamorolone-treated participants. (Assessments of vamorolone-treated trial participants were 0, 3, 6, and 18 months).
Standing height and weight were assessed at each study visit. Height z-score, body mass index (BMI; kg/m^2), and BMI z-score were calculated centrally. AE reporting was done per protocol in the vamorolone trials.
The current study is the first to evaluate the longer-term tolerability, efficacy, and safety of vamorolone in DMD. […] Given the variable timing of dose escalations, it was prespecified that initial analyses of drug-related efficacy and safety would be limited to those participants who had 18 months of treatment with 2.0 mg/kg/day vamorolone or more (dose group C+dose group D; n=23). Outcomes for these participants were compared to a group-matched cohort from the CINRG DNHS over 18 months (corticosteroid-naïve, n=19; corticosteroid-treated, n=68). Participants were matched for age and treatment period (±1 month), matching criteria were prespecified in the statistical analysis plan. Two independent statisticians carried out the matching.
Participants in the corticosteroid-treated CINRG DNHS group were treated for at least 18 months, but the total duration, dose, and regimens varied.

[7] = VBP15-004 height and BMI z-scores, 24 to 48 weeks; type: in vivo, human; details: for BMI mean z-score: prednisone
Description: as §1
Subjects already on vamorolone continued on the allocated dose level. Efficacy at Week 48 was assessed by Time to Stand (TTSTAND) velocity, 6-Minute Walk Test (6MWT), Time to Run/Walk 10 meters (TTRW) velocity, and North Star Ambulatory Assessment (NSAA). […] In contrast, the persistence of effects with vamorolone 2 mg/kg/day was less pronounced for some parameters. The safety profile was consistent for subjects who continued on the same dose of vamorolone throughout the study, with no increase in frequency or severity of adverse events being observed over time. […] In addition, vamorolone treatment at both doses reversed the growth impairment seen during prednisone treatment and was associated with fewer adverse events, including those associated with corticosteroid use.

[8] = Griggs et al. 2016, 0.9 mg/kg/day deflazacort, 0.75 mg/kg/day prednisone

SMILES: CC(=O)OCC(=O)[C@@]12N=C(C)O[C@@H]1C[C@H]1[C@@H]3CCC4=CC(=O)C=C[C@]4(C)[C@H]3[C@@H](O)C[C@@]12C [Deflazacort, deflazacort]
Incidence of Cushingoid ([1]; CINRG DNHS): 72% | Incidence of behavior change ([1]; CINRG DNHS): 33% | Incidence of weight gain ([1]; CINRG DNHS): 63% | Incidence of Cushingoid [1, 8]: 60.3% | Incidence of behavior change [1, 8]: 9% | Incidence of hypertrichosis/hirsutism [1, 8]: 35% | Incidence of weight gain [1, 8]: 27.9% | change in height percentiles for age [2]: −11.4 | change in height percentiles for age ([2]; listed as deflazacort): −11.43 | activity at the mineralocorticoid receptor [3]: agonists

Osteocalcin, mean (SEM) change at Week 24 (osteocalcin, P1NP, CTX): −15.2 (2.7) ng/ml | Procollagen 1 N-Terminal Propeptide (P1NP), mean (SEM) change at Week 24 (osteocalcin, P1NP, CTX; Prednisone 0.75 mg): −134 (22) ng/mL | Type I Collagen C-Telopeptides (CTX), mean (SEM) change at Week 24 (osteocalcin, P1NP, CTX; Prednisone 0.75 mg): −300 (43) pg/mL | effect on bone biomarkers (osteocalcin, PINP, CTX) (osteocalcin, P1NP, CTX; Week 24, vamorolone 2.0 and 6.0 mg/kg): strongly reduce all bone biomarkers | Mean BMI z-score, value (SD) at 12 months ([6]; 12 months): 1.068 (1.05) | Mean height percentile for age, change from baseline (SD) ([6]; 12 months): −3.76 (10.44) | Mean height percentile for age, value (SD) at 12 months ([6]; 12 months): 26.14 (24.21) | Mean BMI z-score, change from baseline (SD) ([6]; 12 months): 0.459 (0.407) | Mean BMI z-score, change from baseline (SD) ([6]; 12 months, listed as prednisone): 0.46 | Mean height percentile for age, baseline value (SD) ([6]; baseline): 29.89 (29.15) | Mean BMI z-score, baseline value (SD) ([6]; baseline): 0.61 (1.27) | Mean BMI z-score, baseline value (SD) ([6]; baseline, listed as prednisone): 0.61 | height (z-score), absolute value, Mean ([7]; PDN/VAM 6 mg, Week 24): −0.38 | change in height Z scores ([7]; prednisone 0.75 mg/kg/day, baseline to Week 24): growth deceleration | BMI mean z-score ([7]; end of Treatment Period 1): 1.40 | BMI mean z-score ([7]; start of Treatment Period 1): 0.94
SMILES: C[C@]12C=CC(=O)C=C1CC[C@@H]1[C@@H]2C(=O)C[C@@]2(C)[C@H]1CC[C@]2(O)C(=O)CO [Prednisone, prednisone]
AESIs of at least moderate severity, F [4]: 15 | Abnormal behavior, any severity, F [4]: 2 | Abnormal behavior, moderate/severe, F [4]: 1 | Aggression, any severity, F [4]: 3 | Aggression, moderate/severe, F [4]: 2 | All AESIs, F [4]: 69 | All TEAEs, F [4]: 120 | Anger, any severity, F [4]: 1 | Any Behavior AESI, any severity, F [4]: 16 | Any Behavior AESI, moderate/severe, F [4]: 8 | Clinically relevant AEs, F [4]: 19 | Emotional disorder, any severity, F [4]: 1 | Emotional disorder, moderate/severe, F [4]: 1 | Initial insomnia, any severity, F [4]: 1 | Irritability, any severity, F [4]: 1 | Mood swings, any severity, F [4]: 2 | Mood swings, moderate/severe, F [4]: 1 | Personality change, any severity, F [4]: 1 | Personality change, moderate/severe, F [4]: 1 | Psychomotor hyperactivity, any severity, F [4]: 3 | Psychomotor hyperactivity, moderate/severe, F [4]: 1 | Severe TEAEs (CTCAE Grade ≥3), F [4]: 1 | Sleep disorder, any severity, F [4]: 1 | Sleep disorder, moderate/severe, F [4]: 1 | TEAEs leading to discontinuation, F [4]: 1 | clinically relevant psychiatric events, subjects [4]: 19.4% | moderate/severe behavior problems, subjects [4]: 22.6% | 6MWT distance (boys with DMD): 407 meters | NSAA (boys with DMD): 25.6 points | TTRW velocity (boys with DMD): 2.20 m/s | TTSTAND velocity (boys with DMD): 0.28 rises/s | activity at the mineralocorticoid receptor [3]: agonists | number of adverse events [5]: 70 | number of adverse events reported as behavioral disorders [5]: 15 | number of adverse events typically associated with corticosteroids [5]: 40
